# Test results from ChEMBL document CHEMBL5241112, “Insights into the recent progress in the medicinal chemistry of pyranopyrimidine analogs” (RSC Med Chem, 2022).
# pIC50: −log10 of the molar value.
# Key:
# [1] = Antioxidant activity assessed as NO radical scavenging activity; type: functional
# [2] = Antioxidant activity assessed as DPPH radical scavenging activity; type: functional
# [3] = Antioxidant activity assessed as H2O2 radical scavenging activity; type: functional
# [4] = Antiproliferative activity against human […] cells assessed as reduction in cell proliferation; type: functional, cell-based
# MCF7 [5] = assay: Antiproliferative activity against human MCF7 cells assessed as reduction in cell proliferation; type: functional, cell-based
# HepG2 [6] = assay: Antiproliferative activity against human HepG2 cells assessed as reduction in cell proliferation; type: functional, cell-based
# Escherichia coli [7] = assay: Antibacterial activity against Escherichia coli MTCC 723 assessed as diameter of inhibition zone at 0.1 mg/ml incubated for 24 hrs by agar well diffusion method; type: functional; conditions: read-out: DIZ
# HepG2 [8] = assay: Anticancer activity against human HepG2 cells assessed as reduction in cell viability incubated for 48 hrs by MTT assay; type: functional, cell-based; conditions: HepG2, 48 h
# MCF7 [9] = assay: cells; conditions: Homo sapiens, MCF7, 48 h
# [10] = Antioxidant activity assessed as DPPH radical scavenging activity at 12 ug incubated for 30 mins by spectrophotometric analysis; type: functional; conditions: dose 12.0 µg
# Candida albicans = assay: Antifungal activity against Candida albicans assessed as diameter of inhibition zone incubated for 48 hrs by agar well diffusion method; type: functional
# Staphylococcus aureus [11] = assay: Antibacterial activity against Staphylococcus aureus NCIM 2654 assessed as diameter of inhibition zone incubated for 24 hrs by agar well diffusion method; type: functional
# Staphylococcus aureus [12] = assay: Antibacterial activity against Staphylococcus aureus NCTC-7447 assessed as diameter of inhibition zone incubated for 24 hrs by disc diffusion method; type: functional
# Serratia marcescens [13] = assay: Antibacterial activity against Serratia marcescens IMRU-70 assessed as diameter of inhibition zone incubated for 24 hrs by disc diffusion method; type: functional
# Bacillus cereus = assay: Antibacterial activity against Bacillus cereus ATCC-14579 assessed as diameter of inhibition zone incubated for 24 hrs by disc diffusion method; type: functional
# Proteus mirabilis = assay: Antibacterial activity against Proteus mirabilis NTCC-289 assessed as diameter of inhibition zone incubated for 24 hrs by disc diffusion method; type: functional
# Penicillium chrysogenum [14] = assay: Antifungal activity against Penicillium chrysogenum AUCC-530 assessed as diameter of inhibition zone incubated for 24 hrs by disc diffusion method; type: functional
# Aspergillus ochraceus [15] = assay: Antifungal activity against Aspergillus ochraceus AUCC-230 assessed as diameter of inhibition zone incubated for 24 hrs by disc diffusion method; type: functional
# Serratia marcescens [16] = assay: Antibacterial activity against Serratia marcescens assessed as diameter of inhibition zone by disc diffusion method; type: functional
# Aspergillus ochraceus [17] = assay: Antifungal activity against Aspergillus ochraceus assessed as diameter of inhibition zone by disc diffusion method; type: functional
# Penicillium chrysogenum [18] = assay: Antifungal activity against Penicillium chrysogenum assessed as diameter of inhibition zone by disc diffusion method; type: functional
# Alpha-glucosidase = Alpha-glucosidase (Saccharomyces cerevisiae S288c, UniProt P53341+P38158+P07265); assay: Inhibition of Saccharomyces cerevisiae alpha-glucosidase assessed as decrease in release of p-nitrophenol using pNPG as substrate incubated for 10 mins by spectroscopic analysis; type: protein assay
# Bacillus subtilis = assay: Antibacterial activity against Bacillus subtilis assessed as diameter of inhibition zone; type: functional
# Salmonella typhimurium [19] = assay: Antibacterial activity against Salmonella typhimurium MTCC 98 assessed as bacterial growth inhibition by broth microdilution method; type: functional, Salmonella enterica subsp. enterica serovar Typhimurium; conditions: Salmonella enterica
# Escherichia coli [20] = assay: Antibacterial activity against Escherichia coli assessed as diameter of inhibition zone; type: functional
# Staphylococcus aureus [21] = assay: Antibacterial activity against Staphylococcus aureus assessed as diameter of inhibition zone; type: functional
# Salmonella typhimurium [22] = assay: Antibacterial activity against Salmonella typhimurium assessed as diameter of inhibition zone; type: functional, Salmonella enterica subsp. enterica serovar Typhimurium
# Escherichia coli [23] = assay: Antibacterial activity against Escherichia coli ATCC 25922 assessed as diameter of inhibition zone at 50 mg/ml incubated for 24 hrs by paper disk diffusion method; type: functional; conditions: read-out: DIZ
# Aspergillus fumigatus = assay: microbe, parasite or virus in culture; type: functional; conditions: ATCC204305, dose 50 mg/ml, time 24 hrs, read-out: DIZ
# Klebsiella pneumoniae = assay: Antibacterial activity against Klebsiella pneumoniae MGH 78578 assessed as diameter of inhibition zone at 50 mg/ml incubated for 24 hrs by paper disk diffusion method; type: functional; conditions: read-out: DIZ
compound,measurement,setting,value
Nc1ncnc2c1C(c1ccccc1O)c1ccc(O)cc1O2 (stereo not drawn),IC50,[1],50.32 µg/mL
same,IC50,[2],36.82 µg/mL
same,IC50,[3],53.54 µg/mL
c1ccc(-c2nn(-c3ccccc3)cc2C2c3c(ccc4ccccc34)Oc3ncn4ncnc4c32)cc1 (stereo not drawn),pIC50,[4],5.31
same,pIC50,MCF7 [5],5.00
same,pIC50,HepG2 [6],5.04
C1=COc2ncncc2C1,zone of inhibition at 100 µg/mL,Escherichia coli [7],13.1 mm
COc1cc(C2CC(=O)Oc3[nH]c(=O)[nH]c(=O)c32)ccc1O (stereo not drawn),pIC50,HepG2 [8],4.97
same,pIC50,MCF7 [9],5.05
Cc1n[nH]c2c1C(c1ccc([N+](=O)[O-])cc1)c1c([nH]c(=O)[nH]c1=O)O2 (stereo not drawn),Activity,[10],98.4%
same,diameter of the inhibition zone (DIZ),Candida albicans,12 mm
same,diameter of the inhibition zone (DIZ),Staphylococcus aureus [11],20 mm
CCOC(=O)n1c(=O)nc2c3c(ncn21)Oc1c(c(=O)oc2ccccc12)C3c1ccc(Cl)cc1 (stereo not drawn),diameter of the inhibition zone (DIZ),Staphylococcus aureus [12],18 mm
same,diameter of the inhibition zone (DIZ),Serratia marcescens [13],21 mm
same,diameter of the inhibition zone (DIZ),Bacillus cereus,19 mm
same,diameter of the inhibition zone (DIZ),Proteus mirabilis,21 mm
same,diameter of the inhibition zone (DIZ),Penicillium chrysogenum [14],13 mm
same,diameter of the inhibition zone (DIZ),Aspergillus ochraceus [15],15 mm
O=c1oc2ccccc2c2c1C(c1ccc(Cl)cc1)c1c(ncn3nc(CCl)nc13)O2 (stereo not drawn),diameter of the inhibition zone (DIZ),Staphylococcus aureus [12],18 mm
same,diameter of the inhibition zone (DIZ),Serratia marcescens [13],21 mm
same,diameter of the inhibition zone (DIZ),Bacillus cereus,19 mm
same,diameter of the inhibition zone (DIZ),Proteus mirabilis,21 mm
same,diameter of the inhibition zone (DIZ),Penicillium chrysogenum [14],13 mm
same,diameter of the inhibition zone (DIZ),Aspergillus ochraceus [15],15 mm
Cc1n[nH]c2c1C(c1ccc(Cl)cc1)c1c([nH]c(=O)[nH]c1=O)O2 (stereo not drawn),Activity,[10],58.8%
same,diameter of the inhibition zone (DIZ),Candida albicans,18 mm
same,diameter of the inhibition zone (DIZ),Staphylococcus aureus [11],27 mm
Nc1ncnc2c1C(c1ccc([N+](=O)[O-])cc1)c1ccc(O)cc1O2 (stereo not drawn),IC50,[1],50.32 µg/mL
same,IC50,[2],34.34 µg/mL
same,IC50,[3],53.54 µg/mL
Cc1nc2c3c(ncn2n1)Oc1ccc2cc(Br)ccc2c1C3,diameter of the inhibition zone (DIZ),Serratia marcescens [16],23 mm
same,diameter of the inhibition zone (DIZ),Aspergillus ochraceus [17],17 mm
same,diameter of the inhibition zone (DIZ),Penicillium chrysogenum [18],13 mm
CCOC(=O)c1nc2c3c(ncn2n1)Oc1c(c(=O)oc2ccccc12)C3c1ccc(Cl)cc1 (stereo not drawn),diameter of the inhibition zone (DIZ),Staphylococcus aureus [12],18 mm
same,diameter of the inhibition zone (DIZ),Serratia marcescens [13],21 mm
same,diameter of the inhibition zone (DIZ),Bacillus cereus,19 mm
same,diameter of the inhibition zone (DIZ),Proteus mirabilis,21 mm
same,diameter of the inhibition zone (DIZ),Penicillium chrysogenum [14],13 mm
same,diameter of the inhibition zone (DIZ),Aspergillus ochraceus [15],15 mm
COc1cc(/C=C/C(=O)C2=C(/C=C/c3ccc(O)c(OC)c3)Oc3[nH]c(=O)[nH]c(=O)c3C2c2cccc([N+](=O)[O-])c2)ccc1O (stereo not drawn),IC50,Alpha-glucosidase,9.7 µM
CCn1cc(C(=O)O)c(=O)c2cc(F)c(N3CCNCC3)cc21 [NORFLOXACIN],diameter of the inhibition zone (DIZ),Bacillus subtilis,24 mm
same,MIC,Salmonella typhimurium [19],10 µg/mL
same,diameter of the inhibition zone (DIZ),Escherichia coli [20],20 mm
same,diameter of the inhibition zone (DIZ),Staphylococcus aureus [21],14 mm
same,diameter of the inhibition zone (DIZ),Salmonella typhimurium [22],16 mm
O=C1CC(c2ccc(O)cc2)c2c([nH]c(=O)[nH]c2=O)O1 (stereo not drawn),pIC50,HepG2 [8],5.09
COc1cc(/C=C/C(=O)CC(=O)/C=C/c2ccc(O)c(OC)c2)ccc1O [CURCUMIN],IC50,Alpha-glucosidase,44.8 µM
Nc1ncnc2c1C(c1ccc(Cl)cc1)C=C(c1cc3ccccc3oc1=O)O2 (stereo not drawn),zone of inhibition at 50000 µg/mL,Escherichia coli [23],10 mm
same,zone of inhibition at 50000 µg/mL,Aspergillus fumigatus,10 mm
same,zone of inhibition at 50000 µg/mL,Klebsiella pneumoniae,14 mm
Nc1ncnc2c1C(c1ccc3c(c1)OCO3)c1ccc(O)cc1O2 (stereo not drawn),IC50,[2],39.46 µg/mL
same,IC50,[3],53.54 µg/mL
N#CCc1nc2c3c(ncn2n1)Oc1c(c(=O)oc2ccccc12)C3c1ccc(Cl)cc1 (stereo not drawn),diameter of the inhibition zone (DIZ),Staphylococcus aureus [12],18 mm
same,diameter of the inhibition zone (DIZ),Serratia marcescens [13],21 mm
same,diameter of the inhibition zone (DIZ),Bacillus cereus,19 mm
same,diameter of the inhibition zone (DIZ),Proteus mirabilis,21 mm
same,diameter of the inhibition zone (DIZ),Penicillium chrysogenum [14],13 mm
same,diameter of the inhibition zone (DIZ),Aspergillus ochraceus [15],15 mm
